How the values were obtained:
[1] = according to EP1477157B1; cited from earlier work
Escherichia coli = experiment: Minimum inhibitory concentration, suspension test; format: cell-based; settings: 3 days at 37° C.
Method: (§1) Minimal inhibitory concentrations against bacteria, fungi and yeasts were determined by means of a suspension test. For this purpose, nine-stage dilution series of the respective test substances were prepared in 1:1 mixtures of CASO broth and distilled water. For the tests with mushrooms and yeasts in each case 2% dextrose was added. Each microorganism was tested separately in a test tube containing 10 ml of said culture medium. To each tube was added 0.1 ml of a suspension containing 5×10^8 colony forming units (CFU) for bacteria and 1×10^7 CFU for fungi and yeasts, respectively. Each tube was incubated for 3 days at 37° C. (bacteria) or for 4 days at 30° C. (fungi and yeasts). The minimum inhibitory concentration was defined as the concentration at which no turbidity or other visible signs of microbial growth were observed after the end of the test period.

Pseudomonas aeruginosa = experiment: Minimum inhibitory concentration, suspension test; format: cell-based; settings: 3 days at 37° C.
Method: as §1

Staphylococcus aureus = experiment: Minimum inhibitory concentration, suspension test; format: cell-based; settings: 3 days at 37° C.
Method: as §1

Candida albicans = experiment: Minimum inhibitory concentration, suspension test; format: cell-based; settings: 4 days at 30° C.
Method: as §1

Aspergillus brasiliensis = experiment: Minimum inhibitory concentration, suspension test; format: cell-based; settings: 4 days at 30° C.
Method: as §1

[2] = tested on: forearms of healthy volunteers (human skin); experiment: Corneometry test for moisturizing effect; format: in vivo; settings: 3% in H2O
Method: To test the moisturizing effect of various substances and mixtures, the test substances were diluted with distilled water to a concentration of 2-3%. The diluted solutions were applied to the forearms of healthy volunteers (number: 12, age: 19-64 years). Before and after the simple application, the skin moisture of the treated skin areas was measured instrumentally with the aid of a Corneometer CM825, combined with a Cutometer dual MPA 580 from Courage & Khazaka. All measurements were preceded by acclimatization of the subjects in a controlled environment (21° C.±1° C., 45%±10% humidity). The measurement results are given as a percentage change from the initial value after 1 h, 2 h, 4 h, 8 h and 24 h and are summarized in Table 4.

[3] = BASF data sheet Elestab HP100; cited from earlier work

SMILES | C log P [1] | Minimal Inhibitory Concentration (MIC) (Escherichia coli) [%] | Minimal Inhibitory Concentration (MIC) (Pseudomonas aeruginosa) [%] | Minimal Inhibitory Concentration (MIC) (Staphylococcus aureus) [%] | Minimal Inhibitory Concentration (MIC) (Candida albicans) [%] | Minimal Inhibitory Concentration (MIC) (Aspergillus brasiliensis) [%] | corneometry, % change compared to T0 after 1 h [2] | corneometry, % change compared to T0 2 h [2] | corneometry, % change compared to T0 4 h [2] | corneometry, % change compared to T0 8 h [2] | corneometry, % change compared to T0 24 h [2] | compatible pH range [3]
CCCCC(O)CO (centres unmarked) [1,2-hexanediol] | +0.25 | – | – | – | – | – | – | – | – | – | – | –
CCCC(O)CO (centres unmarked) [1,2-pentanediol] | – | 2.5 | 2.5 | 4.0 | 2.5 | 2.5 | +18.8% | +31.6% | +37.7% | +21.6% | +13.1% | –
OCCCCCCCO [1,7-heptanediol] | +0.46 | – | – | – | – | – | – | – | – | – | – | –
OCC(O)CO [glycerin] | – | – | – | – | – | – | +34.3% | +40.2% | +39.5% | +29.9% | +17.5% | –
N=C(N)c1ccc(OCCCCCCOc2ccc(C(=N)N)cc2)cc1 [hexamidine diisethionate, 2-hydroxyethanesulfonic acid-4,4′-[1,6-hexanediylbis(oxy)]dibenzenecarboximidamide] | – | 0.01 | 0.1 | 0.0025 | 0.01 | 0.0005 | – | – | – | – | – | 3-8
